Consider ten molecules from PubChem BioAssay (NCI).

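Interpolation was linear, between the two tested concentrations surrounding the appropriate level; five concentrations were tested over 48 hours in 96-well plates. The concentration for 50% growth inhibition is given as GI50. At the TGI there is no net growth.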

Test systems include NCI-H460 lung; OVCAR-8 ovarian; TK-10 renal; SK-OV-3 ovarian; SK-MEL-2 melanoma; U251 CNS; CAKI-1 renal; EKVX NSCLC; SNB-75 CNS.
Assay in all cases: growth of human tumour cells (NCI), 48 h

Turning to `Cc1cnc2c(C)ccc([N+](=O)[O-])c2c1NCCCN(C)C`, the TGI in the experiment with NCI-H460 lung, in the experiment on OVCAR-8 ovarian, in the experiment with TK-10 renal, with SK-OV-3 ovarian, in the experiment on SK-MEL-2 melanoma and with U251 CNS was above 100 µM each time. The TGI with CAKI-1 renal and in the experiment with EKVX NSCLC was above 100 µM throughout.
On to `CCOC(=O)c1c2c(n3ccc(NC(=O)CCN4CCCC4)cc13)C(=O)c1ncccc1C2=O`, for which the GI50 was 1.38 µM with OVCAR-8 ovarian; 1.05 µM in the experiment on SNB-75 CNS; 1.26 µM in the experiment with TK-10 renal; 2.22 µM in the experiment on SK-OV-3 ovarian; 18.5 µM with SK-MEL-2 melanoma; 1.27 µM with U251 CNS. The GI50 was 0.181 µM with CAKI-1 renal and 1.46 µM with EKVX NSCLC. Further, the TGI was found to be 3.49 µM with OVCAR-8 ovarian; 2.41 µM in the experiment on SNB-75 CNS; 2.61 µM in the experiment on TK-10 renal; 23.5 µM in the experiment on SK-OV-3 ovarian; 39.3 µM in the experiment with SK-MEL-2 melanoma; 2.82 µM in the experiment with U251 CNS. Moreover, the TGI with CAKI-1 renal was found to be 1.55 µM; in the experiment with EKVX NSCLC it was 3.58 µM.
As for `O=C1C(=O)N(C(=O)c2ccc(Cl)c(Cl)c2)c2ccccc21`, the TGI in the experiment with OVCAR-8 ovarian, with SNB-75 CNS, in the experiment on TK-10 renal, in the experiment on SK-OV-3 ovarian, in the experiment on U251 CNS and in the experiment on EKVX NSCLC was above 100 µM each time.
On to `Cc1c2c(nn1-c1ccc(S(=O)(=O)NC(=S)Nc3ccccc3)cc1)-c1ccccc1CC2`, for which the GI50 was above 50 µM in the experiment on OVCAR-8 ovarian; above 50 µM with SNB-75 CNS; 10 µM in the experiment on TK-10 renal; above 50 µM in the experiment on SK-OV-3 ovarian; above 50 µM in the experiment on SK-MEL-2 melanoma; 39.6 µM in the experiment with U251 CNS. Moreover, the GI50 was 1.85 µM with CAKI-1 renal and above 50 µM with EKVX NSCLC. The TGI is above 50 µM in the experiment with OVCAR-8 ovarian; above 50 µM in the experiment with SNB-75 CNS; 46.9 µM in the experiment with TK-10 renal; above 50 µM in the experiment with SK-OV-3 ovarian; above 50 µM with SK-MEL-2 melanoma; above 50 µM in the experiment on U251 CNS. The values for the TGI in the experiment on CAKI-1 renal and in the experiment on EKVX NSCLC were 36.2 µM and above 50 µM, respectively.
With `COc1ccc2cc(C(=O)/C=C/c3cc(OC)c(OC)c(OC)c3)ccc2c1`, the GI50 in the experiment on NCI-H460 lung is 1.27 µM; with OVCAR-8 ovarian, 2.01 µM; in the experiment with SNB-75 CNS, 11.8 µM; in the experiment on TK-10 renal, 9.61 µM; in the experiment with SK-OV-3 ovarian it was 12.5 µM; with U251 CNS, 1.68 µM. The GI50 with CAKI-1 renal is 3.41 µM; with EKVX NSCLC, 4.05 µM. Further, the TGI with NCI-H460 lung was 5.73 µM; in the experiment with OVCAR-8 ovarian it was above 50 µM; in the experiment on SNB-75 CNS, 39.3 µM; in the experiment on TK-10 renal, 31.4 µM; with SK-OV-3 ovarian, 46.4 µM; with U251 CNS it was 9.48 µM. In addition, the TGI with CAKI-1 renal stood at 28.3 µM; in the experiment with EKVX NSCLC it was 29.5 µM.
Turning to `COc1ccc(-c2nc3sc(C)cn3c2/C=C/C(=O)c2cc(OC)c(OC)c(OC)c2)cc1`, the GI50 is 3.23 µM with OVCAR-8 ovarian; 4.09 µM in the experiment with SNB-75 CNS; 5.55 µM in the experiment on TK-10 renal; 4.19 µM with SK-OV-3 ovarian; 4.04 µM in the experiment with U251 CNS; 5.15 µM in the experiment with CAKI-1 renal. The GI50 in the experiment on EKVX NSCLC was 4.04 µM. Further, the TGI with OVCAR-8 ovarian was 8.57 µM; in the experiment on SNB-75 CNS, above 100 µM; with TK-10 renal it was above 100 µM; with SK-OV-3 ovarian, above 100 µM; in the experiment with U251 CNS, above 100 µM; in the experiment on CAKI-1 renal, above 100 µM. The molecule also gave a TGI in the experiment with EKVX NSCLC above 100 µM.
As for `Cc1ccc(OCC(=O)N2N=C(c3ccccc3)CC2(O)c2ccccc2)cc1` (configuration not stated), the TGI is 28.2 µM in the experiment with NCI-H460 lung; above 100 µM in the experiment with OVCAR-8 ovarian; above 100 µM in the experiment with SNB-75 CNS; above 100 µM with TK-10 renal; above 100 µM with SK-OV-3 ovarian; above 100 µM with SK-MEL-2 melanoma. Besides, the TGI in the experiment with U251 CNS was 34.1 µM; in the experiment with CAKI-1 renal, above 100 µM.
`CC1=C(C(=O)Nc2c(C)cccc2C)C(c2ccc3c(c2)OCO3)C(C(=O)Nc2c(C)cccc2C)=C(C)N1`: the TGI in the experiment on NCI-H460 lung was 39.9 µM; in the experiment on OVCAR-8 ovarian it was 44.2 µM; in the experiment with SNB-75 CNS it was 63.1 µM; in the experiment with TK-10 renal, 62.1 µM; in the experiment with SK-OV-3 ovarian, above 100 µM; in the experiment on U251 CNS, 29.1 µM. The TGI was determined as 59 µM in the experiment on CAKI-1 renal and 53.3 µM with EKVX NSCLC.
With `O=C(O)c1c(-c2cccc3ccccc23)sc(-c2cccc3ccccc23)c1C(=O)O`, the TGI with NCI-H460 lung, with OVCAR-8 ovarian, in the experiment with SNB-75 CNS, with TK-10 renal, in the experiment with SK-OV-3 ovarian and in the experiment on SK-MEL-2 melanoma was above 100 µM throughout. Further, the TGI in the experiment on U251 CNS and in the experiment with EKVX NSCLC was above 100 µM throughout.
For the molecule `N#Cc1c(Sc2ccccc2N)cccc1Sc1ccccc1N`, the GI50 in the experiment on NCI-H460 lung was 40.3 µM; in the experiment with OVCAR-8 ovarian, 53.8 µM; with SNB-75 CNS, 2.24 µM; in the experiment with U251 CNS it was 35.6 µM; in the experiment with CAKI-1 renal, 60.8 µM; in the experiment on EKVX NSCLC, 35.6 µM. Further, in the experiment on SNB-75 CNS, the TGI turned out to be 14.5 µM.
